According to patent US8952024B2, “Herbicidal pyrimidone derivatives” (E I du Pont de Nemours and Company, priority 2009, dated 2015):

Legend:
Assay in all cases: Test D pre-/postemergence plant response
Format in all cases: in vivo
Conditions in all cases: Postemergence, scale 0 to 100 (0 no effect, 100 complete control)
[1] = tested on: goosegrass (Eleusine indica)
How it was run: (§1)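 Scores (0 no effect, 100 complete control) reflect visual assessment against untreated plants after 14 to 21 days. Treatments were pre- and postemergence sprays in solvent with surfactant.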

[2] = tested on: guineagrass (Panicum maximum)
How it was run: as §1

[3] = tested on: mallow (common mallow, Malva sylvestris)
How it was run: as §1

[4] = tested on: dallisgrass (Paspalum dilatatum)
How it was run: as §1

[5] = tested on: johnsongrass (Sorghum halepense)
How it was run: as §1

[6] = tested on: barnyardgrass (Echinochloa crus-galli)
How it was run: as §1

[7] = tested on: bermudagrass (Cynodon dactylon)
How it was run: as §1

[8] = tested on: green foxtail (Setaria viridis)
How it was run: as §1

[9] = tested on: dayflower (Virginia (VA) dayflower, Commelina virginica)
How it was run: as §1

kochia (Kochia scoparia) = tested on: kochia (Kochia scoparia)
How it was run: as §1

[10] = tested on: itchgrass (Rottboellia cochinchinensis)
How it was run: as §1

[11] = tested on: sowthistle (common sowthistle, Sonchus oleraceous)
How it was run: as §1

[12] = tested on: Surinam grass (Brachiaria decumbens)
How it was run: as §1

[13] = tested on: groundsel (common groundsel, Senecio vulgaris)
How it was run: as §1

[14] = tested on: naked crabgrass (Digitaria nuda)
How it was run: as §1

Structure (SMILES): CCCn1c(-c2ccccc2)ncc(C(=O)C2=C(O)C3CCC(C3)C2=O)c1=O (stereo not shown) [Compound 226]
- Plant response rating, Goosegrass ([1]; 125 g ai/ha): 70
- Plant response rating, Goosegrass ([1]; 250 g ai/ha): 75
- Plant response rating, Goosegrass ([1]; 62 g ai/ha): 70
- Plant response rating, Guineagrass ([2]; 125 g ai/ha): 80
- Plant response rating, Guineagrass ([2]; 250 g ai/ha): 80
- Plant response rating, Guineagrass ([2]; 62 g ai/ha): 80
- Plant response rating, Mallow ([3]; 125 g ai/ha): 50
- Plant response rating, Mallow ([3]; 250 g ai/ha): 65
- Plant response rating, Mallow ([3]; 62 g ai/ha): 50
- Plant response rating, Dallisgrass ([4]; 125 g ai/ha): 30
- Plant response rating, Dallisgrass ([4]; 250 g ai/ha): 35
- Plant response rating, Dallisgrass ([4]; 62 g ai/ha): 20
- Plant response rating, Johnsongrass ([5]; 125 g ai/ha): 80
- Plant response rating, Johnsongrass ([5]; 250 g ai/ha): 90
- Plant response rating, Johnsongrass ([5]; 62 g ai/ha): 80
- Plant response rating, Barnyardgrass ([6]; 31 g ai/ha): 85
- Plant response rating, Barnyardgrass ([6]; 125 g ai/ha): 95
- Plant response rating, Barnyardgrass ([6]; 250 g ai/ha): 95
- Plant response rating, Barnyardgrass ([6]; 62 g ai/ha): 85
- Plant response rating, Bermudagrass ([7]; 31 g ai/ha): 90
- Plant response rating, Bermudagrass ([7]; 125 g ai/ha): 95
- Plant response rating, Bermudagrass ([7]; 250 g ai/ha): 98
- Plant response rating, Bermudagrass ([7]; 62 g ai/ha): 95
- Plant response rating, Foxtail, Green ([8]; 125 g ai/ha): 80
- Plant response rating, Foxtail, Green ([8]; 250 g ai/ha): 98
- Plant response rating, Foxtail, Green ([8]; 62 g ai/ha): 70
- Plant response rating, Dayflower, VA ([9]; 250 g ai/ha): 65
- Plant response rating, Dayflower, VA ([9]; 62 g ai/ha): 50
- Plant response rating, Kochia (kochia (Kochia scoparia); 125 g ai/ha): 70
- Plant response rating, Kochia (kochia (Kochia scoparia); 250 g ai/ha): 70
- Plant response rating, Kochia (kochia (Kochia scoparia); 62 g ai/ha): 60
- Plant response rating, Itchgrass ([10]; 125 g ai/ha): 70
- Plant response rating, Itchgrass ([10]; 250 g ai/ha): 90
- Plant response rating, Itchgrass ([10]; 62 g ai/ha): 70
- Plant response rating, Sowthistle ([11]; 125 g ai/ha): 98
- Plant response rating, Sowthistle ([11]; 250 g ai/ha): 98
- Plant response rating, Sowthistle ([11]; 62 g ai/ha): 98
- Plant response rating, Surinam Grass ([12]; 125 g ai/ha): 90
- Plant response rating, Surinam Grass ([12]; 250 g ai/ha): 90
- Plant response rating, Surinam Grass ([12]; 62 g ai/ha): 70
- Plant response rating, Groundsel ([13]; 125 g ai/ha): 95
- Plant response rating, Groundsel ([13]; 250 g ai/ha): 100
- Plant response rating, Groundsel ([13]; 62 g ai/ha): 90
- Plant response rating, Crabgrass, Naked ([14]; 125 g ai/ha): 70
- Plant response rating, Crabgrass, Naked ([14]; 250 g ai/ha): 75
- Plant response rating, Crabgrass, Naked ([14]; 62 g ai/ha): 65
